Each molecule was assayed against human APJ receptor (Homo sapiens (Human), UniProt P35414) (assay: biochemical). Details: read-out: Activity hAPJ SPA EC50 IP.
Assay type: biochemical
Method in brief: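 Agonist-stimulated [35S]GTPγS (0.2 nM) binding was read by SPA after 90 min at room temperature. Buffer: 20 mM HEPES pH 7.5 with 5 mM MgCl2, 200 mM NaCl, 3 μM GDP, 0.1% BSA; membranes were from a stable human APJ CHO line. EC50 values are averages of independent runs, fitted by non-linear regression.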

Chain of human APJ receptor (P35414 whole entry): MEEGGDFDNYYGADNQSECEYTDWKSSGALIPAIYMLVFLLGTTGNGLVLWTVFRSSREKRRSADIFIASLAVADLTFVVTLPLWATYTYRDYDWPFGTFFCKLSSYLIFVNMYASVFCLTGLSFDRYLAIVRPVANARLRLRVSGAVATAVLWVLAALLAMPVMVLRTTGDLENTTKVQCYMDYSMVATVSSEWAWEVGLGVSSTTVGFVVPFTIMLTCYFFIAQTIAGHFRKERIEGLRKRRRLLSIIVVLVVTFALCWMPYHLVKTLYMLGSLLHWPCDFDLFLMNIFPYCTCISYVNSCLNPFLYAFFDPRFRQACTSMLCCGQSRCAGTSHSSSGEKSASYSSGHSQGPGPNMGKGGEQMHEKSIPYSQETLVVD

First: COc1cccc(OC)c1-n1c(NS(=O)(=O)[C@H](C)[C@H](OC(C)C)c2cnc(C)cn2)nnc1-c1cncc(C)c1 (single isomer, unassigned) [Example 746.0, (1R,2R)-N-(4-(2,6-dimethoxyphenyl)-5-(5-methylpyridin-3-yl)-4H-1,2,4-triazol-3-yl)-1-isopropoxy-1-(5-methylpyrazin-2-yl)propane-2-sulfonamide or (1S,2S)-N-(4-(2,6-dimethoxyphenyl)-5-(5-methylpyridin-3-yl)-4H-1,2,4-triazol-3-yl)-1-isopropoxy-1-(5-methylpyrazin-2-yl)propane-2-sulfonamide]
Second: COc1cccc(OC)c1-n1c(NS(=O)(=O)[C@H](C)[C@H](OC(C)C)c2cn3ccccc3n2)nnc1-c1cccnc1 (stereo in doubt) [Example 827.0, (1R,2R)-N-(4-(2,6-dimethoxyphenyl)-5-(3-pyridinyl)-4H-1,2,4-triazol-3-yl)-1-imidazo[1,2-a]pyridin-2-yl-1-(1-methylethoxy)-2-propanesulfonamide, (1S,2S)-N-(4-(2,6-dimethoxyphenyl)-5-(3-pyridinyl)-4H-1,2,4-triazol-3-yl)-1-imidazo[1,2-a]pyridin-2-yl-1-(1-methylethoxy)-2-propanesulfonamide]
The EC50 of the first is 8-fold higher: 80 nM for the first, 10 nM for the second. The second is the more potent here.

Going from `COc1cccc(OC)c1-n1c(NS(=O)(=O)[C@H](C)[C@H](OC(C)C)c2cnc(C)cn2)nnc1-c1cncc(C)c1` (single isomer, unassigned) [Example 747.0, (1R,2R)-N-(4-(2,6-dimethoxyphenyl)-5-(5-methylpyridin-3-yl)-4H-1,2,4-triazol-3-yl)-1-isopropoxy-1-(5-methylpyrazin-2-yl)propane-2-sulfonamide or (1S,2S)-N-(4-(2,6-dimethoxyphenyl)-5-(5-methylpyridin-3-yl)-4H-1,2,4-triazol-3-yl)-1-isopropoxy-1-(5-methylpyrazin-2-yl)propane-2-sulfonamide] to `COc1cccc(OC)c1-n1c(NS(=O)(=O)[C@H](C)[C@H](OC(C)C)c2cn3ccccc3n2)nnc1-c1cccnc1` (stereo in doubt) [Example 828.0, (1R,2R)-N-(4-(2,6-dimethoxyphenyl)-5-(3-pyridinyl)-4H-1,2,4-triazol-3-yl)-1-imidazo[1,2-a]pyridin-2-yl-1-(1-methylethoxy)-2-propanesulfonamide, (1S,2S)-N-(4-(2,6-dimethoxyphenyl)-5-(3-pyridinyl)-4H-1,2,4-triazol-3-yl)-1-imidazo[1,2-a]pyridin-2-yl-1-(1-methylethoxy)-2-propanesulfonamide], the EC50 rises from 7.6 nM to 480 nM (63-fold). The first is the more potent here.

First: COc1ncnc(OC)c1-n1c(NS(=O)(=O)[C@@H]2C[C@@H](OC)CN(c3ncc(F)cn3)C2)nnc1-c1cccnc1 (single isomer, unassigned) [Example 812.0, (3S,5S)—N-(4-(4,6-dimethoxy-5-pyrimidinyl)-5-(3-pyridinyl)-4H-1,2,4-triazol-3-yl)-1-(5-fluoro-2-pyrimidinyl)-5-methoxy-3-piperidinesulfonamide or (3R,5R)—N-(4-(4,6-dimethoxy-5-pyrimidinyl)-5-(3-pyridinyl)-4H-1,2,4-triazol-3-yl)-1-(5-fluoro-2-pyrimidinyl)-5-methoxy-3-piperidinesulfonamide]
Second: COc1ncnc(OC)c1-n1c(NS(=O)(=O)[C@@H]2C[C@H](OC)CN(c3ncc(F)cn3)C2)nnc1-c1cccnc1 (stereo in doubt) [Example 813.0, (3S,5R)-N-(4-(4,6-dimethoxy-5-pyrimidinyl)-5-(3-pyridinyl)-4H-1,2,4-triazol-3-yl)-1-(5-fluoro-2-pyrimidinyl)-5-methoxy-3-piperidinesulfonamide, (3R,5S)-N-(4-(4,6-dimethoxy-5-pyrimidinyl)-5-(3-pyridinyl)-4H-1,2,4-triazol-3-yl)-1-(5-fluoro-2-pyrimidinyl)-5-methoxy-3-piperidinesulfonamide]
The EC50 of the first is 1.6-fold higher: 230 nM for the first, 140 nM for the second.

Going from `Cc1cnc([C@@H](C)[C@H](C)S(=O)(=O)Nc2nnc(-c3cncc(C)c3)n2-c2c(F)cccc2F)nc1` (single isomer, unassigned) [Example 826.0] to `COc1cccc(-c2nnc(NS(=O)(=O)[C@@H](C)[C@H](OC)c3ncc(C)cn3)n2-c2cccnc2)n1` [Example 33.0, (1R,2S)-1-methoxy-N-(5-(6-methoxypyridin-2-yl)-4-(pyridin-3-yl)-4H-1,2,4-triazol-3-yl)-1-(5-methylpyrimidin-2-yl)propane-2-sulfonamide], the EC50 rises from 1.7 nM to 56 nM (33-fold).

First: COc1cccc(-c2nnc(NS(=O)(=O)[C@@H]3CCCN(c4ncc(Cl)cn4)C3)n2-c2c(OC)ncnc2OC)n1 (single isomer, unassigned) [Example 830.0]
Second: COc1ncnc(OC)c1-n1c(NS(=O)(=O)[C@@H]2C[C@H](OC)CN(c3ncc(F)cn3)C2)nnc1-c1cccnc1 (stereo in doubt) [Example 814.0, (3R,5S)-N-(4-(4,6-dimethoxy-5-pyrimidinyl)-5-(3-pyridinyl)-4H-1,2,4-triazol-3-yl)-1-(5-fluoro-2-pyrimidinyl)-5-methoxy-3-piperidinesulfonamide, (3R,5S)-N-(4-(4,6-dimethoxy-5-pyrimidinyl)-5-(3-pyridinyl)-4H-1,2,4-triazol-3-yl)-1-(5-fluoro-2-pyrimidinyl)-5-methoxy-3-piperidinesulfonamide]
The EC50 of the first is 40-fold lower: 14 nM for the first, 560 nM for the second. The first is the more potent here.

First: COc1ncnc(OC)c1-n1c(NS(=O)(=O)[C@@H]2C[C@@H](OC)CN(c3ncc(F)cn3)C2)nnc1-c1cccnc1 (stereo in doubt) [Example 815.0, (3S,5S)-N-(4-(4,6-dimethoxy-5-pyrimidinyl)-5-(3-pyridinyl)-4H-1,2,4-triazol-3-yl)-1-(5-fluoro-2-pyrimidinyl)-5-methoxy-3-piperidinesulfonamide, (3R,5R)-N-(4-(4,6-dimethoxy-5-pyrimidinyl)-5-(3-pyridinyl)-4H-1,2,4-triazol-3-yl)-1-(5-fluoro-2-pyrimidinyl)-5-methoxy-3-piperidinesulfonamide]
Second: COc1cccc(OC)c1-n1c(NS(=O)(=O)[C@@H]2C[C@@H](OC)CN(c3ncc(F)cn3)C2)nnc1-c1cccnc1 (stereo in doubt) [Example 816.0, (3S,5S)-N-(4-(2,6-dimethoxyphenyl)-5-(3-pyridinyl)-4H-1,2,4-triazol-3-yl)-1-(5-fluoro-2-pyrimidinyl)-5-methoxy-3-piperidinesulfonamide, (3R,5R)-N-(4-(2,6-dimethoxyphenyl)-5-(3-pyridinyl)-4H-1,2,4-triazol-3-yl)-1-(5-fluoro-2-pyrimidinyl)-5-methoxy-3-piperidinesulfonamide]
The EC50 of the first is 9.4-fold higher: 170 nM for the first, 18 nM for the second.

First: COc1cccc(OC)c1-n1c(NS(=O)(=O)[C@@H]2C[C@H](OC)CN(c3ncc(F)cn3)C2)nnc1-c1cccnc1 (stereo in doubt) [Example 817.0, (3R,5S)-N-(4-(2,6-dimethoxyphenyl)-5-(3-pyridinyl)-4H-1,2,4-triazol-3-yl)-1-(5-fluoro-2-pyrimidinyl)-5-methoxy-3-piperidinesulfonamide, (3S,5R)-N-(4-(2,6-dimethoxyphenyl)-5-(3-pyridinyl)-4H-1,2,4-triazol-3-yl)-1-(5-fluoro-2-pyrimidinyl)-5-methoxy-3-piperidinesulfonamide]
Second: COc1cccc(OC)c1-n1c(NS(=O)(=O)[C@@H]2C[C@@H](OC)CN(c3ncc(F)cn3)C2)nnc1-c1cccnc1 (stereo in doubt) [Example 819.0, (3S,5S)-N-(4-(2,6-dimethoxyphenyl)-5-(3-pyridinyl)-4H-1,2,4-triazol-3-yl)-1-(5-fluoro-2-pyrimidinyl)-5-methoxy-3-piperidinesulfonamide, (3R,5R)-N-(4-(2,6-dimethoxyphenyl)-5-(3-pyridinyl)-4H-1,2,4-triazol-3-yl)-1-(5-fluoro-2-pyrimidinyl)-5-methoxy-3-piperidinesulfonamide]
The EC50 of the first is 2.1-fold lower: 16 nM for the first, 33 nM for the second.

Compared with `COc1cccc(OC)c1-n1c(NS(=O)(=O)[C@@H]2C[C@H](OC)CN(c3ncc(F)cn3)C2)nnc1-c1cccnc1` (stereo in doubt) [Example 818.0, (3R,5S)-N-(4-(2,6-dimethoxyphenyl)-5-(3-pyridinyl)-4H-1,2,4-triazol-3-yl)-1-(5-fluoro-2-pyrimidinyl)-5-methoxy-3-piperidinesulfonamide, (3S,5R)-N-(4-(2,6-dimethoxyphenyl)-5-(3-pyridinyl)-4H-1,2,4-triazol-3-yl)-1-(5-fluoro-2-pyrimidinyl)-5-methoxy-3-piperidinesulfonamide], `COc1cccc(-c2nnc(NS(C)(=O)=O)n2-c2c(OC)cccc2OC)n1` [Example 4.02, N-(4-(2,6-dimethoxyphenyl)-5-(6-methoxypyridin-2-yl)-4H-1,2,4-triazol-3-yl)methanesulfonamide] is 2-fold higher in EC50: 110 nM for the first, 220 nM for the second. The first is the more potent here.

Compared with `CCS(=O)(=O)Nc1nnc(-c2cccc(OC)n2)n1-c1c(OC)cccc1OC` [Example 29.0, N-(4-(2,6-dimethoxyphenyl)-5-(6-methoxypyridin-2-yl)-4H-1,2,4-triazol-3-yl)ethanesulfonamide], `CCS(=O)(=O)Nc1nnc(-c2cccc(C)n2)n1-c1c(OC)cccc1OC` [Example 30.0, N-(4-(2,6-dimethoxyphenyl)-5-(6-methylpyridin-2-yl)-4H-1,2,4-triazol-3-yl)ethanesulfonamide] is 5.5-fold higher in EC50: 150 nM for the first, 830 nM for the second. The first is the more potent here.

First: COc1cccc(-c2nnc(NS(=O)(=O)[C@@H](C)[C@H](OC)c3ncc(C)cn3)n2-c2ccccc2)n1 [Example 34.0, (1R,2S)-1-methoxy-N-(5-(6-methoxypyridin-2-yl)-4-phenyl-4H-1,2,4-triazol-3-yl)-1-(5-methylpyrimidin-2-yl)propane-2-sulfonamide]
Second: COc1cccc(-c2nnc(NS(=O)(=O)[C@@H](C)[C@H](OC)c3ncc(C)cn3)n2-c2c(OC)ncnc2OC)n1 [Example 35.0, (1R,2S)-N-(4-(4,6-dimethoxypyrimidin-5-yl)-5-(6-methoxypyridin-2-yl)-4H-1,2,4-triazol-3-yl)-1-methoxy-1-(5-methylpyrimidin-2-yl)propane-2-sulfonamide]
The EC50 of the first is 7.8-fold higher: 4.2 nM for the first, 0.54 nM for the second.
